Experimental data published in US8901111B2, “Aryl-substituted heterocyclic urea modulators of fatty acid amide hydrolase” (Janssen Pharmaceutica NV, priority 2009, dated 2014).
pIC50: −log10 of the molar value.

How the values were obtained:
[1] = test system: acute thermal nociception; conditions: rats; WO 02/087569; cited from earlier work
neuropathic pain = conditions: rats; WO 02/087569; cited from earlier work
spasticity = conditions: Baker 2001; cited from earlier work
FAAH [2] = target: T1, FAAH (Homo sapiens, UniProt O00519); conditions: reported; cited from earlier work
T1 sequence (O00519 1-579): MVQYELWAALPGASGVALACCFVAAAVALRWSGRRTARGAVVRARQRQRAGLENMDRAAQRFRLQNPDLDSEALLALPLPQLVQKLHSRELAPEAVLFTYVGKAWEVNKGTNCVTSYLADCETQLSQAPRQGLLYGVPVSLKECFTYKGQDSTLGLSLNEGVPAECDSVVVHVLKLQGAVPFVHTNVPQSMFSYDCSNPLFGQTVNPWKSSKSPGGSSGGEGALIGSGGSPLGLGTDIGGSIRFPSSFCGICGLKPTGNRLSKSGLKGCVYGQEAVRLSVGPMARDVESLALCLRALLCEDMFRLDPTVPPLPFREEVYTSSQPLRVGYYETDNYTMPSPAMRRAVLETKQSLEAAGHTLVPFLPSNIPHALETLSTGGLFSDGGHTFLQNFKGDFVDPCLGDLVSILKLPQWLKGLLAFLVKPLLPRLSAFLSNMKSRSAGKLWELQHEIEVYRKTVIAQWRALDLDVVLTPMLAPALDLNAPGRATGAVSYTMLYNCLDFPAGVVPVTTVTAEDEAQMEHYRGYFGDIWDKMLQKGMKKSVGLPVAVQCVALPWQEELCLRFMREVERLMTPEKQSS

thermal nociception [3] = conditions: rats; WO 04/033652; cited from earlier work
thermal nociception [4] = conditions: cited from earlier work
anxiety = conditions: rats; Kathuria 2003; cited from earlier work
[5] = Kathuria 2003; cited from earlier work
rat FAAH = target: T2, rat FAAH (Rattus norvegicus, UniProt P97612); assay: Assay Method 2: FAAH assay, 3H-anandamide hydrolysis in homogenate of cells transfected with rat FAAH; type: biochemical; conditions: cell homogenate, 3H-AEA 80 nM, 1 h at rt, average of results
T2 construct: expressed in transfected cells; crude homogenate
T2 sequence (P97612 1-579): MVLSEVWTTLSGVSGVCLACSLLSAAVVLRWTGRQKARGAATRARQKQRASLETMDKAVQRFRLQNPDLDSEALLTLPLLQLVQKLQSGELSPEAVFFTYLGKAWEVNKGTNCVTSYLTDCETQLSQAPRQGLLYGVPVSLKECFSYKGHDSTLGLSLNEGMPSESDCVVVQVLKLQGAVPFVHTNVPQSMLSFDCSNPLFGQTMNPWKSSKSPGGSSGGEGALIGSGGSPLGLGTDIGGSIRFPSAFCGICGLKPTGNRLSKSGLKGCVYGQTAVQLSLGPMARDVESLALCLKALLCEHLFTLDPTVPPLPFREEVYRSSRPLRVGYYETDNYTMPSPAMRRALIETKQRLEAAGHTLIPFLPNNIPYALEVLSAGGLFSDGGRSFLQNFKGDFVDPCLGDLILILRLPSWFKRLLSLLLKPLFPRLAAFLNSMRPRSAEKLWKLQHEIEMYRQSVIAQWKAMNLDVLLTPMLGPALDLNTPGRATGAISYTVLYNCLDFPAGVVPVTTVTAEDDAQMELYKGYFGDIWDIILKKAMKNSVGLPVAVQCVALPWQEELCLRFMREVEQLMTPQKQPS
Procedure, shortened: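 Homogenate of SK-N-MC cells stably transfected with rat FAAH, in pH 9 Tris/EDTA/glycerol/Triton buffer, incubated 1 h at rt with 80 nM final [1-3H-ethanolamine]anandamide. Released 3H-ethanolamine separated from substrate on activated charcoal filters by centrifugation and quantified by scintillation counting.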

FAAH [6] = target: T1, FAAH; assay: Assay Method 1: FAAH assay, 3H-anandamide hydrolysis in homogenate of cells transfected with human FAAH; type: biochemical; set-up: expressed in transfected cells; crude homogenate (T84 cell pellets named as alternative); conditions: cell homogenate, 3H-AEA 80 nM, 1 h at rt, average of results
Procedure, shortened: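 Homogenates of SK-N-MC cells stably transfected with human FAAH (or T84 cells) in pH 9 Tris/EDTA/glycerol/Triton buffer, incubated with compound and 80 nM final ^3H-anandamide for 1 h at rt. Released ^3H-ethanolamine separated through activated charcoal by centrifugation and counted by scintillation.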

Row | Structure (SMILES) | pIC50 (rat FAAH) | pIC50 (FAAH [6]) | further results
1 | Cc1nc(-c2ccccc2)c(-c2ccccc2)n1CCCCCCNC(=O)Oc1ccccc1F [BMS-1] | – | – | analgesic effect in Hargraves test [1]: analgesic effect; analgesic effect in Chung spinal nerve ligation model (neuropathic pain): analgesic effect
2 | CCCCCCCCCCCCCCCCS(=O)(=O)F [AM374] | – | – | spasticity in CREAE mice (spasticity): significantly reduce spasticity
3 | O=C(CCCCCCc1ccccc1)c1ncc(-c2ccccn2)o1 [OL-135] | – | – | inhibition of FAAH (FAAH [2]): potent inhibitor; analgesic activity in tail emersion test (thermal nociception [3]): analgesic activity; analgesic activity in hot plate test (thermal nociception [4]; rats, WO 04/033652): analgesic activity
4 | NC(=O)c1cccc(-c2cccc(OC(=O)NC3CCCCC3)c2)c1 [URB-597] | – | – | efficacy in zero plus maze model of anxiety (anxiety): efficacy; analgesic efficacy in rat formalin test [5]: analgesic efficacy; analgesic efficacy in rat hot plate test (thermal nociception [4]; rat, Kathuria 2003): analgesic efficacy
5 | O=C(Nc1cccnc1)N1CC(COc2cccc(Oc3ccc(Cl)cc3)c2)C1 [Example 26, 3-[3-(4-Chloro-phenoxy)-phenoxymethyl]-azetidine-1-carboxylic acid pyridin-3-ylamide] | 6.70 | 6.92 | –
6 | O=C(Nc1cccnc1)N1CCC(CCOc2ccccc2)C1 (stereo not drawn) [Example 54, 3-(2-Phenoxy-ethyl)-pyrrolidine-1-carboxylic acid pyridin-3-ylamide] | < 5.00 | < 5.00 | –
7 | O=C(Nc1cccnc1)N1CC(CCOc2ccc3ccccc3n2)C1 [Example 36, 3-[2-(Quinolin-2-yloxy)-ethyl]-azetidine-1-carboxylic acid pyridin-3-ylamide] | 6.37 | 6.70 | –
8 | O=C(Nc1ccc2nccn2c1)N1CC(CCOc2cccc(Oc3ccc(Cl)cc3)c2)C1 [Example 41, 3-{2-[3-(4-Chloro-phenoxy)-phenoxy]-ethyl}-azetidine-1-carboxylic acid imidazo[1,2-a]pyridin-6-ylamide] | 6.00 | 5.52 | –
9 | C#Cc1cccc(OCC2CN(C(=O)Nc3cccnc3)C2)c1 [Example 11, 3-(3-Ethynyl-phenoxymethyl)-azetidine-1-carboxylic acid pyridin-3-ylamide] | 5.80 | 6.43 | –
10 | O=C(Nc1cccnc1)N1CC(CCOc2cccc(Oc3ccc(OC(F)(F)F)cc3)c2)C1 [Example 29, 3-{2-[3-(4-Trifluoromethoxy-phenoxy)-phenoxy]-ethyl}-azetidine-1-carboxylic acid pyridin-3-ylamide] | 6.40 | 7.28 | –
11 | O=C(Nc1cnccc1Cl)N1CCC(CCOc2cccc(OC(F)(F)F)c2)C1 (stereo not drawn) [Example 61, 3-[2-(3-Trifluoromethoxy-phenoxy)-ethyl]-pyrrolidine-1-carboxylic acid (4-chloro-pyridin-3-yl)-amide] | 5.80 | 5.80 | –
12 | O=C(Nc1cccnc1)N1CC(CCOc2cc(Cl)cc(Cl)c2)C1 [Example 47, 3-[2-(3,5-Dichloro-phenoxy)-ethyl]-azetidine-1-carboxylic acid pyridin-3-ylamide] | 6.60 | 6.00 | –
13 | O=C(Nc1cccnc1)N1CC(COc2ccc(Cl)c(Cl)c2)C1 [Example 21, 3-(3,4-Dichloro-phenoxymethyl)-azetidine-1-carboxylic acid pyridin-3-ylamide] | 6.28 | 6.00 | –
14 | O=C(Nc1cccnc1)N1CC(COc2cccc(OC(F)(F)F)c2)C1 [Example 6, 3-(3-Trifluoromethoxy-phenoxymethyl)-azetidine-1-carboxylic acid pyridin-3-ylamide] | 6.76 | 5.96 | –
15 | O=C(Nc1cnccc1Cl)N1CCC(CCOc2cccc(Oc3ccc(Cl)cc3)c2)C1 (stereo not drawn) [Example 64, 3-{2-[3-(4-Chloro-phenoxy)-phenoxy]-ethyl}-pyrrolidine-1-carboxylic acid (4-chloro-pyridin-3-yl)-amide] | 7.14 | 7.20 | –
16 | CS(=O)(=O)c1ccc(Oc2cccc(OCCC3CN(C(=O)Nc4cccnc4)C3)c2)cc1 [Example 27, 3-{2-[3-(4-Methanesulfonyl-phenoxy)-phenoxy]-ethyl}-azetidine-1-carboxylic acid pyridin-3-ylamide] | 6.32 | 7.82 | –
17 | O=C(Nc1noc2ccccc12)N1CC(CCOc2cccc(Oc3ccc(Cl)cc3)c2)C1 [Example 43, 3-{2-[3-(4-Chloro-phenoxy)-phenoxy]-ethyl}-azetidine-1-carboxylic acid benzo[d]isoxazol-3-ylamide] | 9.00 | 8.40 | –
18 | O=C(Nc1cccnc1)N1CC(COc2ccc(Oc3ccccc3)cc2)C1 [Example 16, 3-(4-Phenoxy-phenoxymethyl)-azetidine-1-carboxylic acid pyridin-3-ylamide] | < 5.00 | < 5.00 | –
19 | O=C(Nc1cccnc1)N1CC(COc2ccc(OC(F)(F)F)cc2)C1 [Example 5, 3-(4-Trifluoromethoxy-phenoxymethyl)-azetidine-1-carboxylic acid pyridin-3-ylamide] | 5.52 | < 5.00 | –
20 | O=C(Nc1cnccc1Cl)N1CC(CCOCc2ccc(Cl)cc2)C1 [Example 65, 3-[2-(4-Chloro-benzyloxy)-ethyl]-azetidine-1-carboxylic acid (4-chloro-pyridin-3-yl)-amide] | 6.13 | 6.56 | –
21 | O=C(Nc1cnccc1Cl)N1CCC(CCOc2ccccc2)C1 (stereo not drawn) [Example 57, 3-(2-Phenoxy-ethyl)-pyrrolidine-1-carboxylic acid (4-chloropyridin-3-yl)-amide] | < 5.00 | 5.52 | –
22 | O=C(Nc1cccnc1)N1CCC(CCOc2cccc(Oc3ccc(Cl)cc3)c2)C1 (stereo not drawn) [Example 63, 3-{2-[3-(4-Chloro-phenoxy)-phenoxy]-ethyl}-pyrrolidine-1-carboxylic acid pyridin-3-ylamide] | 6.20 | 6.22 | –
23 | CS(=O)(=O)c1ccc(Oc2cccc(OCC3CN(C(=O)Nc4cccnc4)C3)c2)cc1 [Example 24, 3-[3-(4-Methanesulfonyl-phenoxy)-phenoxymethyl]-azetidine-1-carboxylic acid pyridin-3-ylamide] | 6.42 | 7.24 | –
24 | O=C(Nc1cccnc1)N1CCC(CCOc2ccc(OC(F)(F)F)cc2)C1 (stereo not drawn) [Example 60, 3-[2-(4-Trifluoromethoxy-phenoxy)-ethyl]-pyrrolidine-1-carboxylic acid pyridin-3-ylamide] | < 5.00 | < 5.00 | –
25 | O=C(Nc1cnccc1Cl)N1CCC(CCc2ccc3c(c2)OC(F)(F)O3)C1 (stereo not drawn) [Example 78, 3-[2-(2,2-Difluoro-benzo[1,3]dioxol-5-yl)-ethyl]-pyrrolidine-1-carboxylic acid (4-chloro-pyridin-3-yl)-amide] | 6.49 | 6.64 | –
